# Source: US20230348421A1, “5-HT2A RECEPTOR INHIBITOR OR INVERSE AGONIST, PREPARATION METHOD THEREFOR, AND APPLICATION THEREOF” (GENEORA PHARMA (SHIJIAZHUANG) CO., LTD., priority 2020, published 2023)
# Legend:
# 5-HT2A receptor [1] = biological target: T1, 5-HT2A receptor (Homo sapiens (Human), UniProt P28223); assay: Screening for 5-HT2A inverse agonistic activity (NIH3T3-5-HT2A R cells, Bright-Glo luciferase, 120 h); type: cell-based; details: NIH3T3-5HT2AR cells, cell inhibition rate
# Procedure: • Cell lines: Adherent cells NIH3T3-5-HT2A R • Cell culture medium: DMEM+10% FBS (purchased from GBICO) • Cell culture plate: White-wall clear-bottom 96-well plate (purchased from Perkin Elmer) • Detection kit: Bright-Glo™ Luciferase (purchased from Promega) • Detection instrument: BioTek multifunctional microplate reader
# NIH3T3-5HT2AR cells in the logarithmic growth phase were seeded into a white-wall clear-bottom 96-well plate at a density of 1000 cells per well, and cultured overnight in a 37° C., 5% CO2 incubator. […] On the sixth day, a Bright-Glo™ Luciferase reagent with a volume equal to that of cell sap was added to the cells, and the cells were incubated at room temperature in the dark for 20 min. […] The data was processed with GraphPad Prism 7.0 to obtain a cell inhibition rate curve, and the IC50 was calculated.
# Cell inhibition rate (%)=[100−(Lum test drug−Lum culture solution)/(Lum cell control−Lum culture solution)×100]%
# 5-HT2A receptor [2] = biological target: T1, 5-HT2A receptor; assay: Test for 5-HT2A antagonistic activity (calcium ion antagonism, FLIPR, CHO-K1/5-HT2A cells); type: cell-based; details: 100 nM a-methyl-5-HT, Ca2+ signal
# Procedure: • Cell lines: CHO-K1/5-HT2A (Chempartner) • Cell culture medium: DMEM/F12+10% FBS (purchased from GBICO) • Cell culture plate: 384-well Assay Plate (purchased from Corning) • Detection kit: FLIPR® Calcium 4 Assay Kit (purchased from Molecular Devices)
# After that, centrifugation was performed to remove the culture medium in the cell culture plate. Dye was added, and the cells were incubated in a 37° C., 5% CO2 incubator for another 1 h. The cell culture plate was placed on the FLIPR. A compound to be tested was added, and the Ca^2+ signal was detected, wherein the compound to be tested was subjected to 3-fold gradient dilution with PBS to obtain 10 concentrations, with the highest concentration of 10 uM, and double replicate wells were set up. […] In order to determine the test stability, risperidone was used as a positive control. The data were processed with GraphPad Prism 7.0 to obtain a cell inhibition rate curve, and the IC50 was calculated.
# Inhibition rate (%)=100%−[(signal value of the compound to be tested−signal value of the test solution)/(the maximum signal value−the signal value of the test solution)]×100%
# [3] = In-vitro stability in dog liver microsomes; type: in vitro ADME; details: for Remaining amount 60 min later: Dog liver microsomes 0.5 mg/mL, 1 μM, NADPH 1 mM
# Procedure: (§1) • 1) formulation of test sample working solution: the test sample was diluted to 100 μM with methanol; • 2) formulation of liver microsome working solution: liver microsomes were diluted to 0.56 mg/ml with a 100 mM phosphate buffer; • 3) formulation of reduced nicotinamide adenine dinucleotide phosphate (NADPH) working solution: an appropriate amount of NADPH was weighted and diluted to 20 mM with a phosphate buffer, and then a 60 mM MgCl2 solution with the equal volume was added; • 4) formulation of stop solution: tolbutamide was diluted to 20 ng/mL with acetonitrile to serve as a stop solution containing an internal standard.
# (§2) The remaining percentage of the test sample was tested 60 min later.
# [4] = In-vitro stability in human liver microsomes; type: in vitro ADME; details: for Remaining amount 60 min later: Human liver microsomes 0.5 mg/mL, 1 μM, NADPH 1 mM
# Procedure: as §1, §2
# [5] = In-vivo pharmacokinetic test in rats after intragastric administration; details: SD rats; for AUC(0-t) / Cmax / MRT last / Tmax / half-life: rat, po, 46.7 umol/kg, 20% Solutol, plasma
# Procedure: Blood was collected before administration and 0.25 h, 0.5 h, 1 h, 2 h, 3 h, 4 h, 6 h, 8 h, 12 h and 24 h after administration, respectively and placed in a heparinized EP tube, and the plasma was centrifugally separated. After the plasma was pre-treated, the concentrations of compounds in the plasma were determined by LC-MS/MS, and the pharmacokinetic parameters were calculated.
# hERG potassium channels = hERG potassium channels (Homo sapiens (Human), UniProt Q12809); assay: hERG inhibitory activity, whole-cell patch clamp in CHO-hERG cells; details: read-out: hERG inhibitory activity IC50; CHO-hERG cells, whole-cell patch clamp, tail current at -50 mV
# hERG potassium channels, sequence (Q12809 whole entry): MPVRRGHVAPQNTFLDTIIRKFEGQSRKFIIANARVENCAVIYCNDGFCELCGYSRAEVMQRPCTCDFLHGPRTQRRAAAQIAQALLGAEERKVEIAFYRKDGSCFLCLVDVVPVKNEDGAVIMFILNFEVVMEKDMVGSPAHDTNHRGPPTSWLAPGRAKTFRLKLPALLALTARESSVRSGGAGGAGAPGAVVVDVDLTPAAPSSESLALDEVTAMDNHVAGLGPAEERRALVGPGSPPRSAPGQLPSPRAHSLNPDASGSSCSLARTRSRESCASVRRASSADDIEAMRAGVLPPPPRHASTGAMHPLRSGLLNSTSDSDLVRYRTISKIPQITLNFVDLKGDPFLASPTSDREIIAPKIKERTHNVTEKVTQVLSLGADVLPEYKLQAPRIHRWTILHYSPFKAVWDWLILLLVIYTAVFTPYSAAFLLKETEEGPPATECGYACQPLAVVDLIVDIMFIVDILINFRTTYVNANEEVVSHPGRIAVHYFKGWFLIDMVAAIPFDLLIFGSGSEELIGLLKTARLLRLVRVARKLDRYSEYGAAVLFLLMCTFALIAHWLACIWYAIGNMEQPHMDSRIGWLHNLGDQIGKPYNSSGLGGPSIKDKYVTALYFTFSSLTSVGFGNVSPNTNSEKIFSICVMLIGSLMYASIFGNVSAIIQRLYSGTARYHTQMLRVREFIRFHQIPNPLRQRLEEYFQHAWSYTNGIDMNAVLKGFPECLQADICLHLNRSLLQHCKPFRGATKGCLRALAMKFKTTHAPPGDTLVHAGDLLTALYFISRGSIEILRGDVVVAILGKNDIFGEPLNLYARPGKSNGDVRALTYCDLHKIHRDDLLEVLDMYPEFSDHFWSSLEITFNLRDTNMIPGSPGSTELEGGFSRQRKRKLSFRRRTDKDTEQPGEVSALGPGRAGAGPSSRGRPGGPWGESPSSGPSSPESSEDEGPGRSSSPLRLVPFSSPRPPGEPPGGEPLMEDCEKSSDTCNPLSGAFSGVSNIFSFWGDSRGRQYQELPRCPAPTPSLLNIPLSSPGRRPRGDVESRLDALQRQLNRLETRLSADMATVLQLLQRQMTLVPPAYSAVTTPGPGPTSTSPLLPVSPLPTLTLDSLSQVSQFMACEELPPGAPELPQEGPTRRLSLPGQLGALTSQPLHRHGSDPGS
# Procedure: • Name: Dimethyl sulfoxide (DMSO)
# • Species & strains: CHO-hERG cell lines (Chinese hamster ovary cells stably expressing hERG channels) • Culture medium: 90% F12, 10% fetal bovine serum, 100 μg/mL G418 and 100 μg/mL hygromycin B • Culture conditions: 5% CO2, 37° C. incubator • Freezing conditions: Liquid nitrogen
# Digestion was performed at room temperature for 3-5 min. The digestion solution was pipetted, and the cells were resuspended in extracellular fluid and transferred to an experimental dish for electrophysiological recording for later use.
# On the day of the test, the compound was diluted with DMSO to an intermediate concentration. 10 μL of compound with the intermediate concentration was taken, transferred to 4990 μL of extracellular fluid, and subjected to 500-fold dilution to obtain a final concentration to be tested.
# CHO (Chinese Hamster Ovary) cells stably expressing hERG potassium channels were taken, and hERG potassium channel currents were recorded at room temperature by means of a whole-cell patch-clamp technique. A glass microelectrode was formed by pulling a glass electrode blank (BF150-86-10, Sutter) with a glass microelectrode puller. The tip resistance was about 2-5 MΩ after perfusion of a pippette solution. The glass microelectrode could be connected to a patch clamp amplifier by inserting the glass microelectrode into an amplifier probe. Clamping voltages and data recording were controlled and recorded by a computer with pClamp 10 software, with a sampling frequency of 10 kHz and a filtering frequency of 2 kHz. After the whole-cell recording was obtained, the cells were clamped at −80 mV, and the step voltage evoking hERG potassium current (I hERG) was changed from −80 mV to +20 mV by giving a 2 s depolarization voltage and then repolarized to −50 mV for 1 s, and returned to −80 mV. Such voltage stimulation was given every 10 s, and the administration process was started after it was determined that the hERG potassium currents were stable (1 min). The compound at each test concentration was given at least 1 min, and at least 2 cells (n≥2) were tested for each concentration.
# Data analysis was performed by means of pClamp 10 and GraphPad Prism 5.0 software.
# The formula for calculating the degree of inhibition of different compound concentrations on hERG potassium currents (the hERG tail current peak value evoked at −50 mV) was:
# Y=Bottom+(Top−Bottom)/(1+10^((LogIC50−X)*HillSlope))
# wherein X is a Log value of a test concentration of a test sample, Y is the inhibition percentage at a corresponding concentration, and Bottom and Top are the minimum inhibition percentage and the maximum inhibition percentage, respectively.
# T1 sequence (P28223 whole entry): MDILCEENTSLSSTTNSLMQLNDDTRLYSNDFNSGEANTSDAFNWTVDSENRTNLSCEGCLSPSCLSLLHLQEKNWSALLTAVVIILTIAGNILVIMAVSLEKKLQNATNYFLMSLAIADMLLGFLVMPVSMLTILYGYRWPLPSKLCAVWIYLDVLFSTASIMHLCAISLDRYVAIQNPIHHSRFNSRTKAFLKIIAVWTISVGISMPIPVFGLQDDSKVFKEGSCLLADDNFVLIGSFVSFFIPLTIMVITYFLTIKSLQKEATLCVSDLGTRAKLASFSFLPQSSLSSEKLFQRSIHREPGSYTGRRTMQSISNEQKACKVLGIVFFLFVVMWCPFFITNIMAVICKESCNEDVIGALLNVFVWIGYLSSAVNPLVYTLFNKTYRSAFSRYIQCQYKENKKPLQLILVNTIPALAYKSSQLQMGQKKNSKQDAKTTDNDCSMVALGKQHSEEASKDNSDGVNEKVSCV
Structure (SMILES),IC50 (5-HT2A receptor [1]),IC50 (5-HT2A receptor [2]),Remaining amount 60 min later [3],Stability compared with pimavanserin ([3]; dog liver microsomes in vitro),Remaining amount 60 min later [4],Stability compared with pimavanserin ([4]; human liver microsomes in vitro),AUClast relative to pimavanserin ([5]; 46.7 μmol/kg),Cmax relative to pimavanserin ([5]; 46.7 μmol/kg),T1/2 compared with pimavanserin ([5]; 46.7 μmol/kg),AUC(0-t) [5],Cmax [5],MRT last [5],Tmax [5],half-life [5],IC50 (hERG potassium channels)
CN1CCC(N(Cc2ccc(F)cn2)C(=O)NCc2ccc(OCC(F)(F)F)cc2)CC1 [Compound 59],2.04 nM,0.54 nM,76.37%,obviously superior stability to that of pimavanserin,89.19%,obviously superior stability to that of pimavanserin,4 times,2 times,higher than that of pimavanserin,17 ± 2.97 µM·h,1140 ± 365 nM,8.66 ± 0.89 h,5.88 ± 5.14 h,5.51 ± 1.33 h,810 nM
"CC(C)COc1ccc(CNC(=O)N(Cc2ccc(F)cc2)C2CCN(C)CC2)cc1 [Pimavanserin, reference compound]",,,29.72%,,77.44%,,,,,4.29 ± 1.66 µM·h,536 ± 260 nM,5.61 ± 0.34 h,2.75 ± 1.26 h,2.38 ± 0.8 h,
